Laboratory results published in publication PMC6825221, “In silico re-engineering of a neurotransmitter to activate KCNQ potassium channels in an isoform-specific manner” (Communications Biology, 2019).
Values joined by “and” are separate entries in the source; they are usually repeats but may differ in a detail not shown here. Equal entries are not always repeated. “Also recorded” adds a separate entry of the source.

What was measured:
KCNQ1 = KCNQ1 (Homo sapiens, UniProt P51787); assay: TEVC of homomeric KCNQ1 expressed in Xenopus oocytes; format: cell-based; settings: dose response, ΔV0.5act
Description: (§1) We generated cRNA transcripts encoding human KCNQ1, KCNQ2, KCNQ3, KCNQ4, KCNQ5 or GLRA1 (NM_001146040) (GenScript, Piscataway, NJ, USA) by in vitro transcription using the T7 polymerase mMessage mMachine kit (Thermo Fisher Scientific), after vector linearization, from cDNA sub-cloned into plasmids incorporating Xenopus laevis β-globin 5′ and 3′ UTRs flanking the coding region to enhance translation and cRNA stability. We quantified cRNA by spectrophotometry. We generated mutant KCNQ2 and KCNQ3 cDNAs by site-directed mutagenesis using a QuikChange kit (Stratagene, San Diego, CA) and prepared the corresponding cRNAs as above. We injected defolliculated stage V and VI Xenopus laevis oocytes (Ecocyte Bioscience, Austin, TX and Xenoocyte, Dexter, MI) with KCNQ channel α subunit (5-20 ng) or GLRA1 (20 ng) cRNAs. We incubated the oocytes at 16 °C in Barth’s saline solution (Ecocyte Bioscience) containing penicillin and streptomycin, with daily washing, for 2–5 days prior to two-electrode voltage-clamp (TEVC) recording.
(§2) We performed TEVC at room temperature using an OC-725C amplifier (Warner Instruments, Hamden, CT) and pClamp10 software (Molecular Devices, Sunnyvale, CA) 2–5 days after cRNA injection as described in the section above. For recording, oocytes were placed in a small-volume oocyte bath (Warner) and viewed them with a dissection microscope. Chemicals were sourced from Sigma, Matrix Scientific and Santa Cruz. […] All stock solutions were diluted in bath solution on the day of experiments. KCNQ2/3 channel activation was screened for using either 30 µM or 100 µM concentrations of each of the six compounds, then dose responses were conducted as appropriate. […] Currents were recorded in response to voltage pulses between −120 or −80 mV and + 40 mV at 20 mV intervals from a holding potential of −80 mV, to yield current-voltage relationships, current magnitude, and for quantifying activation rate. We analyzed data using Clampfit (Molecular Devices) and Graphpad Prism software (GraphPad, San Diego, CA, USA); values are stated as mean ± SEM. […]

KCNQ5 = KCNQ5 (Homo sapiens, UniProt Q9NR82); assay: TEVC of homomeric KCNQ5 expressed in Xenopus oocytes; format: cell-based; settings: read-out: EC50, KCNQ5 activation
Description: as §1, §2

GLRA1 = molecular target: T1, GLRA1 (Homo sapiens, UniProt P23415); assay: TEVC of glycine receptor GLRA1 expressed in Xenopus oocytes; format: cell-based
T1 sequence (P23415 29-457): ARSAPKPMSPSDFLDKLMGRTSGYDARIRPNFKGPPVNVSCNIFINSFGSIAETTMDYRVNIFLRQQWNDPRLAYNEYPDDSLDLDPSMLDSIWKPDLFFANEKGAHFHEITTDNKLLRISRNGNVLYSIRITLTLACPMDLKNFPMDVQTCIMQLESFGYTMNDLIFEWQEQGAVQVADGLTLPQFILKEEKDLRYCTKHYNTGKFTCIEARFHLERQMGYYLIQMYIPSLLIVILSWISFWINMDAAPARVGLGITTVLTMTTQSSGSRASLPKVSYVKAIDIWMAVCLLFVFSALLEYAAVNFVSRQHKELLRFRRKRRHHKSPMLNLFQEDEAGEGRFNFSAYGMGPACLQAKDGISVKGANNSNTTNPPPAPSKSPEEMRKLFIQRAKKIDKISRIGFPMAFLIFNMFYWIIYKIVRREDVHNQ
Description: as §1
We performed TEVC at room temperature using an OC-725C amplifier (Warner Instruments, Hamden, CT) and pClamp10 software (Molecular Devices, Sunnyvale, CA) 2–5 days after cRNA injection as described in the section above. For recording, oocytes were placed in a small-volume oocyte bath (Warner) and viewed them with a dissection microscope. Chemicals were sourced from Sigma, Matrix Scientific and Santa Cruz. […] All stock solutions were diluted in bath solution on the day of experiments. KCNQ2/3 channel activation was screened for using either 30 µM or 100 µM concentrations of each of the six compounds, then dose responses were conducted as appropriate. Bath solution was (in mM): 96 NaCl, 4 KCl, 1 MgCl2, 1 CaCl2, 10 HEPES (pH 7.6). Compounds were introduced into the oocyte recording bath by gravity perfusion at a constant flow of 1 ml per minute for 3 min prior to recording. Pipettes were of 1–2 MΩ resistance when filled with 3 M KCl. Currents were recorded in response to voltage pulses between −120 or −80 mV and + 40 mV at 20 mV intervals from a holding potential of −80 mV, to yield current-voltage relationships, current magnitude, and for quantifying activation rate. We analyzed data using Clampfit (Molecular Devices) and Graphpad Prism software (GraphPad, San Diego, CA, USA); values are stated as mean ± SEM. We plotted raw or normalized tail currents versus prepulse voltage and fitted with a single Boltzmann function:1 g=(A1−A2)/1+exp(V12−V)∕VS+A2, where g is the normalized tail conductance, A1 is the initial value at −∞, A2 is the final value at +∞, V1/2 is the half-maximal voltage of activation and Vs the slope factor. Activation, deactivation, wash-in and washout kinetics were fitted with single exponential functions to yield a τ value.

KCNQ3*-W265L = KCNQ3*-W265L (Homo sapiens, UniProt O43525, A315T/W265L); assay: TEVC of homomeric KCNQ3*-W265L; format: cell-based
Description: (§3) We generated cRNA transcripts encoding human KCNQ1, KCNQ2, KCNQ3, KCNQ4, KCNQ5 or GLRA1 (NM_001146040) (GenScript, Piscataway, NJ, USA) by in vitro transcription using the T7 polymerase mMessage mMachine kit (Thermo Fisher Scientific), after vector linearization, from cDNA sub-cloned into plasmids incorporating Xenopus laevis β-globin 5′ and 3′ UTRs flanking the coding region to enhance translation and cRNA stability. We quantified cRNA by spectrophotometry. We generated mutant KCNQ2 and KCNQ3 cDNAs by site-directed mutagenesis using a QuikChange kit (Stratagene, San Diego, CA) and prepared the corresponding cRNAs as above. […]
(§4) We performed TEVC at room temperature using an OC-725C amplifier (Warner Instruments, Hamden, CT) and pClamp10 software (Molecular Devices, Sunnyvale, CA) 2–5 days after cRNA injection as described in the section above. […] Currents were recorded in response to voltage pulses between −120 or −80 mV and + 40 mV at 20 mV intervals from a holding potential of −80 mV, to yield current-voltage relationships, current magnitude, and for quantifying activation rate. We analyzed data using Clampfit (Molecular Devices) and Graphpad Prism software (GraphPad, San Diego, CA, USA); values are stated as mean ± SEM. […]

KCNQ2/KCNQ3-W265L = KCNQ2/KCNQ3-W265L (Homo sapiens, UniProt O43525+O43526, W265L); assay: TEVC of KCNQ2/3 with KCNQ3-W265L mutation; format: cell-based
Description: as §3, §4

KCNQ2 [1] = molecular target: T2, KCNQ2 (Homo sapiens, UniProt O43526); assay: [3H]GABA binding and competition, oocytes expressing KCNQ2; settings: 100 µM
Description: Oocytes were then washed four times in 16 °C ND96, transferred to individual wells in a 96 well plate and lysed in 0.2% SDS in ND96. Each oocyte lysate was transferred to a scintillation vial containing 5 ml Cytoscint scintillation cocktail fluid (MP Biomedicals, Santa Ana, CA). Vials were capped, shaken, and then allowed to sit at room temperature for at least 30 min before scintillation counting in a Beckmann Coulter LS6500 liquid scintillation counter.

KCNQ2 [2] = molecular target: T2, KCNQ2; assay: Relative ion permeability of KCNQ2; format: cell-based; parameters: dose or concentration left out as unconfirmed
Description: According to the Goldman–Hodgkin–Katz (GHK) voltage equation:2 Erev=RT∕Fln(PK[K^+]O+PNa[Na]O+PCl[Cl]i)/(PK[K^+]i+PNa[Na]i+PCl[Cl]o), where Erev is the absolute reversal potential and P is permeability. This permits calculation of the relative permeability of each ion if concentrations on either side of the membrane are known. A modified version of this equation was used here to determine relative permeability of two ions in a system in which only the extracellular ion concentration was known. Thus, relative permeability of Rb^+, Cs^+, and Na^+ compared to K^+ ions was calculated for KCNQ2 and KCNQ3* by plotting the I/V relationships for each channel with each extracellular ion (100 mM) (using the voltage protocol shown in Fig. 9g) and comparing them to that with 100 mM extracellular K^+ ion to yield a change in reversal potential (ΔErev) for each ion compared to that of K^+. Permeability ratios for each ion (X) compared to K^+ were then calculated as3 ΔErev=Erev,X−Erev,K=lnPX/PK. […]

## CS(=O)(=O)N(CC(=O)O)c1cccc(F)c1 [3FMSG]
KCNQ1
  effects on KCNQ1: negligible or much less potent effects
KCNQ5
  EC50: 171 ± 112 nM
GLRA1; 100 µM, 1 mM glycine
  inhibition of glycine-activated GLRA1: 35-40% and ~ 40%
GLRA1; 1 mM, compound alone
  activation of GLRA1: Neither compound activated GLRA1
GLRA1; each at 100 µM
  inhibition of the activation of GLRA1 by 1 mM glycine: partially inhibited
KCNQ3*-W265L
  maximal efficacy, KCNQ3*-W265L versus KCNQ3*: reduced by half
  reduction of sensitivity by the W265L mutation versus KCNQ3*: 44 fold
KCNQ2/KCNQ3-W265L
  effect of the KCNQ3-W265L mutation within KCNQ2/3: dependent on KCNQ3-W265; also recorded: eliminated effects of 3FMSG
KCNQ2 [1]
  competition of GABA binding to KCNQ2: able to compete out GABA binding
KCNQ2 [2]
  relative Na+ permeability (compared to K+) of KCNQ2: not KCNQ2
